Test results as given in the CheMixHub viscosity set.

Experiment: xn = mol fraction of the nth substance listed

OCCOCCOCCO + O
viscosity [mPa·s]
Settings | 308.15 K | 313.15 K | 318.15 K | 323.15 K
100 kPa, x2 = 0.014 | – | 19.23 | 15.91 | 13.33
100 kPa, x2 = 0.05 | – | 18.39 | 15.2 | 12.7
100 kPa, x2 = 0.094 | – | 17.83 | 14.73 | 12.32
100 kPa, x2 = 0.112 | – | – | 15.13 | 12.64
101 kPa, x1 = 0.05023 | – | 1.618 | 1.455 | 1.295
101 kPa, x1 = 0.1004 | – | 3.012 | 2.621 | 2.296
101 kPa, x1 = 0.1518 | – | 4.689 | 4.011 | 3.473
101 kPa, x1 = 0.2006 | – | 6.418 | 5.421 | 4.63
101 kPa, x1 = 0.2528 | – | 8.113 | 6.753 | 5.724
101 kPa, x1 = 0.2995 | – | 9.888 | 8.235 | 6.927
101 kPa, x1 = 0.3928 | – | 12.22 | 10.07 | 8.441
101 kPa, x1 = 0.5013 | – | 14.27 | 11.79 | 9.827
101 kPa, x1 = 0.5995 | – | 15.84 | 13.02 | 10.84
101 kPa, x1 = 0.6648 | – | 16.75 | 13.73 | 11.45
101 kPa, x1 = 0.7981 | – | 17.67 | 14.53 | 12.09
101 kPa, x1 = 0.8445 | – | 18.12 | 14.92 | 12.41
101 kPa, x1 = 0.8998 | – | 18.44 | 15.2 | 12.64
101 kPa, x1 = 0.954 | – | 18.69 | 15.4 | 12.8
101.33 kPa, x1 = 0.0056 | 0.787 | – | – | –
101.33 kPa, x1 = 0.011 | 0.877 | – | – | –
101.33 kPa, x1 = 0.0317 | 1.298 | – | – | –
101.33 kPa, x1 = 0.0563 | 1.934 | – | – | –
101.33 kPa, x1 = 0.0988 | 3.33 | – | – | –
101.33 kPa, x1 = 0.1954 | 7.273 | – | – | –
101.33 kPa, x1 = 0.2932 | 11.27 | – | – | –
101.33 kPa, x1 = 0.3871 | 14.47 | – | – | –
